What was measured:
Type in all cases: functional
[1] = Inhibition of the PGPH-like activity
[2] = Antiproliferative activity of the compound
[3] = Inhibition of the trypsin-like activity
[4] = Inhibition of the chymotrypsin-like activity

SMILES | k obs / 1 [1] | IC50 [2] | k obs / 1 [3] | k obs / 1 [4]
CC(C)CCCCC(=O)NC(C(=O)NC(CC(C)C)C(=O)[C@@]1(C)CO1)[C@@H](C)O (some centres not stated) | 45 M⁻¹ s⁻¹ | 520 nM | 4 M⁻¹ s⁻¹ | 25 M⁻¹ s⁻¹
CC[C@H](C)[C@H](NC(=O)[C@H]([C@@H](C)CC)N(C)C(C)=O)C(=O)NC(CO)C(=O)NC(CC(C)C)C(=O)[C@@]1(CO)CO1 (single isomer, unassigned) | 35 M⁻¹ s⁻¹ | 140 nM | 470 M⁻¹ s⁻¹ | 17000 M⁻¹ s⁻¹
CC(C)CCCCC(=O)NC(CO)C(=O)N[C@H](CC(C)C)C(=O)[C@@]1(C)CO1 (some centres not stated) | 57 M⁻¹ s⁻¹ | 260 nM | 5 M⁻¹ s⁻¹ | 34 M⁻¹ s⁻¹
CC(C)CCCCC(=O)NC(C(=O)NC(CC(C)C)C(=O)[C@@]1(CO)CO1)[C@@H](C)O (some centres not stated) | 50 M⁻¹ s⁻¹ | 850 nM | 5 M⁻¹ s⁻¹ | 22 M⁻¹ s⁻¹
CC[C@H](C)[C@H](NC(=O)[C@H]([C@@H](C)CC)N(C)C(C)=O)C(=O)NC(C(=O)NC(CC(C)C)C(=O)[C@@]1(C)CO1)[C@@H](C)O (single isomer, unassigned) [EPOXOMYCIN] | 43 M⁻¹ s⁻¹ | 4 nM | 310 M⁻¹ s⁻¹ | 20000 M⁻¹ s⁻¹
CC[C@H](C)[C@H](NC(=O)[C@H]([C@@H](C)CC)N(C)C(C)=O)C(=O)NC(C(=O)NC(CC(C)C)C(=O)[C@@]1(CO)CO1)[C@@H](C)O (single isomer, unassigned) | 37 M⁻¹ s⁻¹ | 60 nM | 290 M⁻¹ s⁻¹ | 18000 M⁻¹ s⁻¹
CC[C@H](C)[C@H](NC(=O)[C@H]([C@@H](C)CC)N(C)C(C)=O)C(=O)NC(CO)C(=O)NC(CC(C)C)C(=O)[C@@]1(C)CO1 (single isomer, unassigned) | 90 M⁻¹ s⁻¹ | 4 nM | 1100 M⁻¹ s⁻¹ | 32000 M⁻¹ s⁻¹
CC(C)CCCCC(=O)NC(CO)C(=O)N[C@H](CC(C)C)C(=O)[C@@]1(CO)CO1 (some centres not stated) | 175 M⁻¹ s⁻¹ | 100 nM | 17 M⁻¹ s⁻¹ | 58 M⁻¹ s⁻¹

Source: ChEMBL document CHEMBL1131895, “Proteasome inhibition by the natural products epoxomicin and dihydroeponemycin: insights into specificity and potency” (Bioorg Med Chem Lett, 1999)
